Among the data in PubChem BioAssay (NCI) are TGI and GI50 values, retold here.

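Five concentrations, 48 hours, 96-well plates. The concentration for 50% growth inhibition is given as GI50. TGI: total growth inhibition.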 A value given as a limit tells only on which side of the number the result lay.

What all share (assay): NCI-60 cell line screen, 48 h
Experiment [1] concerns SF-295 CNS.
Experiment [2] has as its system OVCAR-3 ovarian.
The test system of experiment [3] is NCI/ADR-RES ovarian.
In experiment [4] the test system is EKVX NSCLC.
In experiment [5] the test system is SW-620 colon.
In experiment [6] the test system is RPMI-8226 leukemia.
Experiment [7] relates to IGROV1 ovarian.
For experiment [8], the system named is KM12 colon.
The test system of experiment [9] is SK-MEL-28 melanoma.
For experiment [10], the system named is SF-268 CNS.

Take `C=CC(C)(C)/C=C/c1ccc(O)cc1`: the TGI in experiment [1] was greater than 100 µM; in [2], greater than 100 µM; in experiment [3], greater than 100 µM; in experiment [4] it was greater than 100 µM; in [5], greater than 100 µM; in [6], 70.1 µM. Also, the TGI in experiment [7], in experiment [8], in [9] and in experiment [10] was greater than 100 µM each time.
Consider `CC(C)(C)c1cc(OCc2nnc3sc(Cc4ccccc4)nn23)c(Cl)cc1OCc1nnc2sc(Cc3ccccc3)nn12`, for which the TGI in [1], in experiment [2], in experiment [3], in experiment [4], in experiment [5] and in experiment [6] was greater than 100 µM throughout. The TGI in [7] was 52.4 µM; in experiment [8] it was 57.2 µM; in experiment [9], greater than 100 µM; in experiment [10], greater than 100 µM.
`Cc1cc(S(=O)(=O)Nc2nc3cscc3c(=O)n2N)c(S)cc1Cl`: the TGI in [1] was greater than 100 µM; in [2], greater than 100 µM; in experiment [3], 73.4 µM; in experiment [4] it was greater than 100 µM; in experiment [5], greater than 100 µM; in experiment [6], greater than 100 µM. The TGI in experiment [7], in [8], in [9] and in experiment [10] was greater than 100 µM each time.
For the compound `COc1cc(S(=O)(=O)Nc2ccc(-c3csc(N4C(=O)C(Cl)C4c4ccccc4O)n3)cc2)ccc1Cl` (stereo not given), the TGI was greater than 100 µM in experiment [1]; greater than 100 µM in [2]; greater than 100 µM in experiment [3]; greater than 100 µM in experiment [4]; greater than 100 µM in experiment [5]; 83.9 µM in experiment [6]. Further, the TGI is 56.3 µM in [7], greater than 100 µM in experiment [8], greater than 100 µM in experiment [9] and greater than 100 µM in experiment [10].
In the case of `O=C1Nc2cccc(Cl)c2/C1=C\c1c(-c2ccccc2)nc2n1CCS2`, the TGI in experiment [1] is greater than 100 µM; in experiment [2], 43.5 µM; in [3], greater than 100 µM; in [4], 74.7 µM; in experiment [5], 35.2 µM; in experiment [6] it was 52.9 µM. The TGI in experiment [7] came to 37.5 µM; in [8] it was 52.1 µM; in [9] it was 44.7 µM; in experiment [10], 66.9 µM.
For `O=C1C=CC(=O)c2c1ccc1c3ccccc3n(Cc3ccccc3)c21`, the TGI in [1] is greater than 100 µM; in experiment [2], 33 µM; in [3], greater than 68.4 µM; in experiment [4], greater than 100 µM; in [5], 25.7 µM; in experiment [6], 34.6 µM. Also, the TGI is 46.2 µM in experiment [7], greater than 100 µM in experiment [8], 54 µM in experiment [9] and greater than 77.6 µM in [10].
Take `O=c1[nH]n(CCc2ccccc2CCl)c2ccc([N+](=O)[O-])cc12`: the TGI is greater than 100 µM in experiment [1]; greater than 100 µM in experiment [2]; greater than 100 µM in experiment [3]; 36.1 µM in [4]; greater than 100 µM in experiment [5]; greater than 100 µM in experiment [6]. The TGI in experiment [7], in experiment [8], in [9] and in experiment [10] was greater than 100 µM in each case.
Consider `Cc1nc2ccc(Cl)cc2c2c1CCO2`, for which the TGI in experiment [1], in experiment [2], in experiment [3], in [4], in [5] and in experiment [6] was greater than 100 µM throughout. Further, the TGI in experiment [7], in experiment [8], in experiment [9] and in experiment [10] was greater than 100 µM throughout.
With `O=C1N2CCC[C@H]2CS1(=O)=O`, the TGI is greater than 100 µM in [1]; 31.4 µM in [2]; greater than 100 µM in experiment [3]; 44.4 µM in experiment [4]; 42.1 µM in experiment [5]; 10.8 µM in experiment [6]. The TGI in experiment [7] turned out to be 34.7 µM; in experiment [8] it was 30.8 µM; in experiment [9] it was 41.2 µM; in experiment [10], 42.7 µM.
On to `CCCC1=C(OC)C(=O)c2c(C)cc(Cl)nc2C1=O`, for which the TGI in [1] was 31.9 µM; in experiment [2] it was 6.54 µM; in experiment [3], 14.2 µM; in experiment [4], 20.7 µM; in experiment [5] it was 10.5 µM; in experiment [6] it was 5.98 µM. Further, the TGI in experiment [7] is 30.3 µM; in experiment [8] it was 18.1 µM; in experiment [9] it was 16.7 µM; in experiment [10] it was 27.2 µM.
Regarding `O=C1C=CC(=O)c2c(O)c(N3CCOCC3)c(Cl)c(O)c21`, the TGI in experiment [1] is 3.21 µM; in [2] it was 1.31 µM; in experiment [3] it was 1.43 µM; in [4], 2.79 µM; in [5] it was 0.351 µM; in experiment [6], greater than 10 µM. Moreover, the TGI stood at 1.21 µM in experiment [7], 3.32 µM in experiment [8], 0.786 µM in experiment [9] and 3.19 µM in [10].
Turning to `c1ccc2c[n+](CCCC[n+]3ccc4ccccc4c3)ccc2c1`, the TGI in experiment [1], in experiment [2], in experiment [3], in experiment [4], in [5] and in experiment [6] was greater than 100 µM throughout. The TGI in [7], in experiment [8], in experiment [9] and in [10] was greater than 100 µM each time.
For the compound `C=C(Br)C[N+]12CN3CN(CN(C3)C1)C2`, the TGI in [1], in [2], in [3], in experiment [4], in experiment [5] and in [6] was greater than 100 µM in each case. The TGI in [7], in [8], in experiment [9] and in experiment [10] was greater than 100 µM each time.
Take `O=C1CC(c2ccsc2)n2cccc21` (stereo not given): the TGI in [1], in [2], in [3], in experiment [4], in [5] and in experiment [6] was greater than 100 µM each time. For the same compound, the TGI in experiment [7], in [8], in [9] and in [10] was greater than 100 µM in each case.
Turning to `COc1ccc(OC)c2c(C)ccnc12`, the TGI is 95.3 µM in experiment [1]; 26 µM in [2]; 67.4 µM in [3]; greater than 100 µM in experiment [4]; greater than 85.6 µM in [5]; greater than 100 µM in experiment [6]. Further, the TGI in [7] is greater than 66.4 µM; in experiment [8], greater than 100 µM; in experiment [9], greater than 100 µM; in experiment [10], greater than 97.2 µM.
`O=C(Nc1ccc(-n2cc(-c3ccncc3)c(-c3ccc(O)c(Cl)c3)n2)cc1)c1ccc(Cl)c(C(F)(F)F)c1`: the GI50 in experiment [1] was 1.35 µM; in [2] it was 1.63 µM; in experiment [3], 2.57 µM; in experiment [4], 4.83 µM; in experiment [5], 2.38 µM; in experiment [6], 0.65 µM. The GI50 in experiment [7] was 15.6 µM; in experiment [8], 1.93 µM; in experiment [9], 3.61 µM; in experiment [10] it was 2.79 µM. Further, the TGI in experiment [1] was 4.15 µM; in experiment [2], 7.33 µM; in experiment [3] it was greater than 50 µM; in experiment [4] it was greater than 50 µM; in experiment [5] it was greater than 50 µM; in experiment [6] it was 2.52 µM. Further, the TGI in experiment [7], in experiment [8], in experiment [9] and in [10] was greater than 50 µM throughout.
Take `COC(=O)CCC(=O)NC1=C(Nc2ccccc2)C(=O)c2ccccc2C1=O`: the TGI was determined as 29.9 µM in experiment [1]; 10.4 µM in experiment [2]; 39.9 µM in experiment [3]; 34.2 µM in experiment [4]; 30.6 µM in experiment [5]; 52.3 µM in [6]. For the same compound, the TGI in experiment [7] came out at 26 µM; in experiment [8], 32.5 µM; in experiment [9] it was 17.7 µM; in experiment [10], 51.5 µM.
Take `Cc1cc2nc3ccccc3n2c2ccccc12`: the TGI in experiment [1], in experiment [2], in [3], in [4], in [5] and in experiment [6] was greater than 10 µM in each case. Besides, the TGI in [7], in experiment [8], in experiment [9] and in experiment [10] was greater than 10 µM throughout.
As to `COc1cccc(NC(=O)CC(=O)n2nc(-c3ccccc3)c(N=Nc3ccc(Cl)cc3)c2-c2ccccc2)c1`, the TGI in experiment [1] was greater than 88.8 µM; in experiment [2], 99.1 µM; in [3] it was 52.6 µM; in experiment [4], 92.8 µM; in [5], greater than 100 µM; in experiment [6], greater than 100 µM. Besides, the TGI was greater than 96.4 µM in experiment [7], greater than 81.9 µM in experiment [8], greater than 100 µM in experiment [9] and 49.4 µM in [10].
Regarding `CCOC(=O)CCc1cn2cc(Br)nc(OC)c2n1`, the TGI in experiment [1], in experiment [2], in [3], in experiment [4], in experiment [5] and in experiment [6] was greater than 100 µM in each case. Further, the TGI in [7], in [8], in [9] and in [10] was greater than 100 µM in each case.
Regarding `Oc1cccc2c(Br)ccnc12`, the TGI is greater than 100 µM in experiment [1]; 7.81 µM in experiment [2]; 12.7 µM in experiment [3]; 11.6 µM in experiment [4]; 16.7 µM in experiment [5]; 4.72 µM in experiment [6]. For the same compound, the TGI came to 9.41 µM in experiment [7], 21.1 µM in experiment [8], 38.3 µM in [9] and 14.2 µM in experiment [10].
For `Oc1ccc(Cl)cc1-c1cc(-c2ccccc2)nc(=S)[nH]1`, the TGI in experiment [1], in experiment [2], in experiment [3], in experiment [4], in [5] and in experiment [6] was greater than 100 µM in each case. Besides, the TGI in experiment [7] was greater than 100 µM; in experiment [8], greater than 100 µM; in experiment [9], greater than 100 µM; in [10], 77.7 µM.
Consider `S=C1C(=Nc2ccccc2)N(c2ccccc2)/C(=N\c2cccc[n+]2Cc2ccccc2)N1c1ccccc1`, for which the TGI in experiment [1] is 27.4 µM; in [2], 54.3 µM; in [3] it was greater than 100 µM; in experiment [4], 53.8 µM; in experiment [5], 35.7 µM; in [6], 87.2 µM. Also, the TGI in experiment [7] amounted to 54.9 µM; in experiment [8], 32 µM; in experiment [9], 37.3 µM; in [10], 48.4 µM.
Consider `CC(c1ccccc1)n1cncc1C(=O)NN1CCN(C)CC1` (stereo not given), for which the TGI in experiment [1], in experiment [2], in experiment [3], in experiment [4], in experiment [5] and in [6] was greater than 10 µM throughout. Further, the TGI in experiment [7], in experiment [8], in experiment [9] and in [10] was greater than 10 µM in each case.
